Assay results taken from ChEMBL document CHEMBL1127015, “Centrally acting serotonergic and dopaminergic agents. 1. Synthesis and structure-activity relationships of 2,3,3a,4,5,9b-hexahydro-1H-benz[e]indole derivatives” (J Med Chem, 1993).
Values joined by “and” are separate entries in the source; they are usually repeats but may differ in a detail not shown here. Identical values can stand only once.

How the values were obtained:
[1] = target: T1, D(2) dopamine receptor (Homo sapiens, UniProt P14416); experiment: Binding affinity against [3H]U-86,170-labeled dopamine receptor D2 in cloned CHO cells; assay type: cell-based
T1 sequence (P14416 whole entry): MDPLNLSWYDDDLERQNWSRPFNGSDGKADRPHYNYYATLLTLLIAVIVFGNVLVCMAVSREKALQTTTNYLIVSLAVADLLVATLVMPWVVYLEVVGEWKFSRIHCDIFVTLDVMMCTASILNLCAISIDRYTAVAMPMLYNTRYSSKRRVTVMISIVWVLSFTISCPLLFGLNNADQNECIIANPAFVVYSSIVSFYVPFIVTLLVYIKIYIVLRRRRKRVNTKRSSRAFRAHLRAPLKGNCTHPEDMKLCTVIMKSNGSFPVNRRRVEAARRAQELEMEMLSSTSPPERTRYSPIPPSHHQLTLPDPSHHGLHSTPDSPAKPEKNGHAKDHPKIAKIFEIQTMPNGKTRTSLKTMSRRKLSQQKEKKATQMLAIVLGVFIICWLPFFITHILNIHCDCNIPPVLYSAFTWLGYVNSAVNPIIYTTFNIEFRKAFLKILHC

[2] = system: Mus musculus; experiment: Maximum decrease in temperature when compound is administered through peroral route; assay type: functional
[3] = target: T2, D(2) dopamine receptor (Rattus norvegicus, UniProt P61169); experiment: Inhibitory concentration against [3H]raclopride-labeled dopamine receptor D2 in rat striatum; assay type: tissue-based
T2 sequence (P61169 whole entry): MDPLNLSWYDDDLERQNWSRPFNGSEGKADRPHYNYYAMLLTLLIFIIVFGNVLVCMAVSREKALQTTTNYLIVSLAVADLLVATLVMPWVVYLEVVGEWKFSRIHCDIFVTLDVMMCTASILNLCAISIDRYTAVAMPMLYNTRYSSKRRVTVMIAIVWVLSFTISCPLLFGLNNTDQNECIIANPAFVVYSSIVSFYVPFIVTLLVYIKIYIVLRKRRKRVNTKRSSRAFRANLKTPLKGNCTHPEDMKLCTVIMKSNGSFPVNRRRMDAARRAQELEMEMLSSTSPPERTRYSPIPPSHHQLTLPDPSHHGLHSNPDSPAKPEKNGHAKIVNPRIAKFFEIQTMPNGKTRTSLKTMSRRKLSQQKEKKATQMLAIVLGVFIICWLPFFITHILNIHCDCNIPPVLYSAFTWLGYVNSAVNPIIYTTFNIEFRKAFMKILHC

[4] = system: Mus musculus; experiment: Maximum decrease in temperature when compound is administered subcutaneously; assay type: functional
[5] = system: Mus musculus; experiment: Effective dose on hypothermia in mouse when administered subcutaneously; assay type: functional; conditions: sc
[6] = system: Mus musculus; experiment: Effective dose on hypothermia in mouse when administered through peroral route; assay type: functional; conditions: po
[7] = system: Rattus norvegicus; experiment: Inhibition of firing rates of dopaminergic neurons in the substantia nigra pars compacta by intravenous injection in rats.; assay type: functional
[8] = target: T1, D(2) dopamine receptor; experiment: Intrinsic activity from GTP shift using membranes from CHO cells transfected with mammalian dopamine receptor D2.; assay type: cell membranes
[9] = target: T2, D(2) dopamine receptor; experiment: Binding affinity against [3H]raclopride-labeled dopamine receptor D2 in rat striatum.; assay type: tissue-based
[10] = system: Mus musculus; experiment: Antagonism of apomorphine for 10-20 minutes in reserpinized mice when a dose of 36 micro mol/kg is administered intraperitoneally; assay type: functional
[11] = species: Rattus norvegicus; experiment: Effect on the synthesis rates of serotonin (5-HTP accumulation) in the rat ventral limbic brain region at 10.7uMkg.; assay type: functional, Limbic system
[12] = system: Mus musculus; experiment: Ability to stimulate dopaminergic systems by effect on locomotor activity in reserpinized mice when a dose of 3.6 micro mol/kg is administered intraperitoneally; assay type: functional
[13] = system: Mus musculus; experiment: Increase in locomotor activity in reserpinized mice following 0.4 umol/kg i.p.; assay type: functional
[14] = system: Mus musculus; experiment: Antagonism of apomorphine for 0-10 minutes in reserpinized mice when a dose of 3.6 micro mol/kg is administered intraperitoneally; assay type: functional
[15] = system: Mus musculus; experiment: Antagonism of apomorphine for 10-20 minutes in reserpinized mice when a dose of 3.6 micro mol/kg is administered intraperitoneally; assay type: functional
[16] = system: Mus musculus; experiment: Antagonism of apomorphine for 0-10 minutes in reserpinized mice when a dose of 36 micro mol/kg is administered intraperitoneally; assay type: functional
[17] = system: Felis catus; experiment: Maximum decrease of arterial blood pressure at sympathetic nerve activity (SND) in anesthetized cat has been observed following 1 mg/kg dose; assay type: functional; parameters: scale not given: the % may be the effect or the level left
[18] = system: Mus musculus; experiment: Antagonism of apomorphine in reserpinized mice when a dose of 36 micro mol/kg is administered intraperitoneally; assay type: functional
[19] = system: Mus musculus; experiment: Antagonism of apomorphine in reserpinized mice when a dose of 3.6 micro mol/kg is administered intraperitoneally; assay type: functional
[20] = species: Rattus norvegicus; experiment: Effect on the synthesis rates of serotonin (5-HTP accumulation) in the rat ventral limbic brain region at 10.7uMkg. value as percent change from the control; assay type: functional, Limbic system
[21] = system: Mus musculus; experiment: Ability to stimulate dopaminergic systems by effect on locomotor activity in reserpinized mice when a dose of 36 micro mol/kg is administered intraperitoneally; assay type: functional
[22] = system: Felis catus; experiment: Maximum decrease of sympathetic nerve activity (SND) in anesthetized cat has been expressed as percent control; assay type: functional; parameters: scale not given: the % may be the effect or the level left
[23] = system: Mus musculus; experiment: Antagonism of apomorphine effects for 0-10 minutes in reserpinized mice following 0.4 umol/kg i.p.; assay type: functional; parameters: unit not given beside the values
[24] = system: Mus musculus; experiment: Antagonism of apomorphine effects for 10-20 minutes in reserpinized mice following 0.4 umol/kg i.p.; assay type: functional
[25] = system: Mus musculus; experiment: Antagonism of apomorphine effects in reserpinized mice following 0.4 umol/kg i.p.; assay type: functional
[26] = species: Felis catus; experiment: Percent of arterial blood pressure at sympathetic nerve activity (SND) dose value was determined; assay type: functional
[27] = system: Felis catus; experiment: Effective dose at which the sympathetic nerve activity (SND) has been reduced to 50% of the pretreatment value in anesthetized cat; assay type: functional
[28] = system: Felis catus; experiment: Maximum decrease of sympathetic nerve activity (SND) in anesthetized cat; assay type: functional; parameters: scale not given: the % may be the effect or the level left

In the case of `COc1cccc2c1C1CCN(CCc3ccccc3)[C@@H]1CC2` (some centres undefined), the Ki [1] is reported as > 339 nM.
`CCCN1CC[C@H]2c3c(O)cccc3CC[C@H]21` was tested, and the Max temperature decrease [2] was 7.3, the IC50 [3] was > 1000 nM and the Max temperature decrease [4] was 5.5. For the same compound, the ED50 [5] was 0.3 µmol/kg and the ED50 [6] was 4.9 µmol/kg.
In the case of `C=CCN1CC[C@@H]2c3cccc(OC)c3CC[C@@H]21`, the ED50 ([7]; Rattus norvegicus, Substantia nigra pars compacta, iv, read-out: ED50) is reported as > 3.6 µmol/kg.
With `CCCN1CC[C@@H]2c3c(O)cccc3CC[C@@H]21` the Max temperature decrease [2] was 5.5, the IC50 [3] was > 1000 nM and the Max temperature decrease [4] was 8.5. It also gave an ED50 [5] of 0.05 µmol/kg, an Intrinsic activity [8] of 0% and an ED50 [6] of 21 µmol/kg.
In the case of `CCCN1CC[C@@H]2c3c(cccc3OC)CC[C@@H]21`, the Ki [9] is reported as > 1000 nM.
`C=CCN1CCC2c3cccc(OC)c3CC[C@H]21` (mixture of isomers) was tested, and the Locomotor activity [10] was 17, the Control [11] was 147% and the Locomotor activity [12] was 9. For the same compound, the Ki [9] was 42 nM, the Locomotor activity [13] was 15 and the Locomotor activity [14] was 112. For the same compound, the Locomotor activity [15] was 59, the Locomotor activity [16] was 33 and the Control [17] was 98%. For the same compound, the ED50 [5] was > 107 µmol/kg, the Locomotor activity [18] was 1 and the Locomotor activity [19] was 27. The Control [20] was -4%, the ED50 [7] was 0.42 µM/kg and 0.88 µM/kg and the Intrinsic activity [8] was 0%. For the same compound, the Locomotor activity [21] was 9, the Control [22] was 132% and the Locomotor activity [23] was 91. For the same compound, the Locomotor activity [24] was 92 and the Locomotor activity [25] was 73.
For `CCCN1[C@@H]2CCc3cccc(OC)c3C2C[C@@H]1C` (mixture of isomers), the Max temperature decrease [2] was 3, the BP [26] was 42% and the IC50 [3] was > 1000 nM. The ED50 [27] was 0.17 µmol/kg, the Control [28] was 82% and the Max temperature decrease [4] was 6.8. It also gave a Control [17] of 73%, an ED50 [5] of 14 µmol/kg and an ED50 [6] of 338 µmol/kg.
For `CCCN1CCC2c3c(cccc3OC)CCC21` (racemic), the Max temperature decrease [2] was 6, the Ki [9] was > 1000 nM and the Max temperature decrease [4] was 1.5. It also gave an ED50 [5] of 20 µmol/kg and an ED50 [6] of 109 µmol/kg.
Work on `C=CCN1CC[C@@H]2c3cccc(OC)c3CC[C@H]21` (racemic) yielded a Locomotor activity [10] of 54, a Control [11] of -51% and a Locomotor activity [12] of 81. It also gave a Ki [9] of 99 nM, a Locomotor activity [13] of 4 and a Locomotor activity [14] of 76. The Locomotor activity [15] was 116, the Locomotor activity [16] was 42 and the Max temperature decrease [4] was 3.4. The Control [17] was 61%, the ED50 [5] was > 107 µmol/kg and the Locomotor activity [18] was 13. It also gave a Locomotor activity [19] of 142, a Control [20] of 95% and an Intrinsic activity [8] of 0%. For the same compound, the Locomotor activity [21] was 49, the Control [22] was 105% and the Locomotor activity [23] was 78. It also gave a Locomotor activity [24] of 106 and a Locomotor activity [25] of 156.
In the case of `COc1cccc2c1CC[C@@H]1[C@@H]2CCN1CC1CC1` (racemic), the Ki [9] is reported as > 10000 nM.
